According to US20130236568A1, “PHOSPHAPLATINS HAVING ANTI-ANGIOGENIC, ANTI-METASTATIC, AND PRO-APOPTOTIC PROPERTIES AND USES THEREOF” (Ohio University, priority 2011, published 2013):

Assays:
[1] = system: yeast deletion collection; assay: Genome-wide fitness assay in yeast (pooled deletion strains); format: cell-based
Description: The around 6000 strains in the yeast deletion collection can be studied in a single culture by using a microarray to detect the 20 bp DNA “barcodes” or “tags” contained in each strain. Barcode intensities are compared across time-points or across conditions to analyze the relative fitness of each strain. This development of the pooled fitness assay has greatly facilitated the functional annotation of the yeast genome by making genome-wide gene-deletion studies faster and easier, and has led to the development of high throughput methods for studying drug action in yeast. Pooled screens can be used for identifying gene functions, measuring the functional relatedness of gene pairs in order to group genes into pathways, identifying drug targets, and determining a drug's mechanism of action. This process involves five main steps: preparing aliquots of pooled cells, pooled growth, isolation of genomic DNA and PCR amplification of the barcodes, array hybridization (or next generation sequencing), and data analysis.
The pooled fitness assay involves five main steps (FIG. 3). First, the deletion collection is grown on solid media in arrayed format and the resulting cells are pooled and frozen to make cell aliquots that will be used for starting growth experiments. Cells are then grown in the desired conditions, typically for 5 to 20 generations. The barcodes from the resulting cell samples are prepared for hybridization by isolation of the genomic DNA and PCR amplification of the barcodes. The barcodes are amplified in two reactions to prevent crosstalk between the uptag and downtag primers. The resulting PCR products are then hybridized to tag arrays with one array needed per cell sample. Data is then analyzed to determine differences in strain representation between pairs of samples.
To analyze the genome wide effects of pyrodach-2 and -4, we screened 2 collections of strains, 1200 essential genes as heterozygote deletion mutants (reducing functional gene dose from 2 to 1) and 4800 non-essential genes as complete deletions (reducing functional gene dose from 2 to 0). Both compounds were screened at the highest dose possible (200 μM final concentration) to increase the likelihood of finding compound-specific sensitive strains.
Fitness profiling of pooled deletion strains involves […] main steps: • 1. Strains are first pooled at approximately equal abundance. • 2. The pool is grown competitively in the condition of choice and a control condition. If a gene is sensitive to the treatment condition, the strain carrying this deletion will grow more slowly and become under-represented relative to the control culture (purple strain). Resistant strains will grow faster and become over-represented (not shown). • 3. Genomic DNA is isolated from cells harvested at the end of pooled growth, and barcodes are amplified from the genomic DNA with universal primers. • 4. PCR products are then hybridized to an array that detects the tag sequences, giving tag intensities for the two samples. • 5. The treatment and control sample are then compared to determine the relative fitness of each strain. Note that only the purple strain is described as sensitive to the condition. While the red strain grows more slowly than the blue strain in the treatment, this growth difference in not of interest because it matches that seen in the control.

A2780/C30 cells = assay: Cell death detection assay with ELISA, A2780/C30 cells; format: cell-based, human
Protocol: In these experiments, ovarian cancer cells were treated with pyrodach-4 in the presence and absence of inhibitors PFT-α (an inhibitor p53) and LY29400 (an inhibitor of PI3K).
The different treatment groups from left to right are: control, 7 μM cisplatin, Con+PFT-α, 180 μM D4, 180 μM D4+PFT-α, 180 μM D4+LY294002. Apoptosis was quantified using the Cell Death Detection ELISA from Roche.
A2780 and A2780/C30 cells were grown in monolayers, trypsinized and suspended in supplemented RPMI 1640 media as described in Example 5. All the treatments on the Fc/A2780 and Fc/A2780/C30 cell samples were carried out in triplicate. The ELISA was performed according to the manufacturer's instructions. Briefly, 50,000 cells were plated for each treatment and the cells were allowed to adhere for 4-6 hours. Cells were then either incubated with media alone (untreated sample) or with pyrodach-4 or cisplatin in the concentrations indicated above. DNA of the treated and untreated cells was assayed for nucleosomal DNA using the ELISA kit (purchased from Roche Diagnostics, Mannheim, Germany). The cells were lysed for 30 minutes using the lysis buffer. After centrifuging, 10% (v/v) supernanant was incubated with anti-histone-biotin and anti-DNA-peroxidase. After two hour incubation, the pellets were washed three times and incubated with the substrate solution. The absorbances were measured at 405 and 490 nm for each treatment type using SPECTRA Max M2 multichannel fluorescence plate reader (Molecular Devices, Sunnyvale, Calif.). The absorbances of the treated samples were normalized to the substrate solution.

caspase-9 = assay: Quantitative real-time PCR, caspase-9 expression in HUVEC; format: cell-based, human; conditions: HUVEC treated with pyrodach-4
Protocol: Evaluations of selected gene expressions in Human Umbilical Vein Endothelial Cells (HUVEC) and Human Ovarian Cancer Cells by quantitative reverse transcriptase polymerase chain reaction (PCR)
Quantitative real-time PCR experiments were performed to estimate the expression of a selection of targeted genes. HUVEC cells (Lonza Walkersville, Frederick, Md.) were cultured on 0.1% gelatin-coated petri dishes by following standard protocols recommended by the vendor in a humidified incubator by maintaining 5% CO2 at 37° C. […]
Both treated and untreated cancer cells were maintained in RPMI 1640 medium with 10% fetal bovine serum, 2 μmol L-glutamine, 100 units/mL penicillin-streptomycin and 0.25 units/mL insulin solution, at 37° C. with 5% CO2. […] The quantity and purity of RNA were determined by UV spectroscopy (NanoDrop 2000 Thermo Scientific, Wilmington, Del.). A minimum absorbance ratio index (ratio of the absorbance measured at 260 nm over that at 280 nm) of 1.9 was used as an acceptable purity. […] The target gene was labeled with a blue dye (FAM, absorbance: 494 nm, emission: 518 nm) while the reference gene was tagged with a green dye (VIC, absorbance: 538 nm, emission: 554 nm). […]
The threshold cycle number (Ct), the point at which the fluorescence of the qPCR reaction just exceeds the threshold fluorescence of the detection system, was determined. […]

## trans-(±)-1,2-cyclohexanediamine-trans-dihydroxo(pyrophosphato) platinum(IV) [Pyrodach-4]
[1]; highest dose possible, 200 μM final concentration
  Tolerability by the yeast cell (few sensitive strains): well tolerated by the cell
[1]; yeast deletion strains, 200 μM final concentration
  Functions enriched among sensitive strains: 1) iron and copper transport and 2) metal-regulated transcription factors
[1]; yeast deletion strains, phosphaplatins at 200 μM final concentration
  Sensitivity of DNA damage/repair genes (NER, HRR, PRR): not a single gene involved in DNA repair or other DNA metabolic processes showed any sensitivity as a mutant
A2780/C30 cells; 7 μM cisplatin or 180 μM D4
  Apoptotic cell death (ELISA absorbance): unambiguously showed cell death
A2780/C30 cells; 180 μM D4 with PFT-α 15 μM or LY294002 30 μM
  Effect of p53 and PI3K inhibitors on apoptotic cell death (ELISA absorbance): no effects
caspase-9
  Over-expression of caspase-9: 2-3 fold
